Patent publication US9802884B2, “Mixtures of MGDA enantiomers, and process for making such mixtures” (BASF SE, priority 2013, dated 2017)
Read-outs that look alike come from different tables or passages of the source.

Experiments:
[1] = minimum temperature for forming a kinetically stable 50% by weight solution, cooled 30° C./h to precipitation, reheated 1° C./h until clear, higher Tsol = lower solubility
Experimental: In each case, the solubility was calculated to refer to pure MGDA, without hydrate water. The solubility of inventive mixtures and of comparison experiments was determined with an apparatus that allowed heating and cooling down liquid solutions. […] Then, the slurry of crystals of MGDA so obtained was again heated at a speed of 1° C./h until a clear solution was obtained. The slurry/solution was checked for solid particles by visible light scattering detection. […] A higher temperature Tsol correlates with a lower solubility at ambient temperature.

[2] = ambient temperature
Experimental: The following tolerance tests were performed: 25 g of a 40% by weight aqueous solution of the respective inventive mixture (or of racemic MGDA) were mixed under one hour of stirring with the amount of solid NaOH beads according to table 5. The mixture so obtained was stored at ambient temperature over the period of up to 96 hours. Then, the appearance was characterized by visual inspection.

[3] = aqueous solution, room temperature; cited from earlier work
[4] = NaOH added 0 g to 25 g of 40% by weight aqueous solution
[5] = NaOH added 0.5 g to 25 g of 40% by weight aqueous solution
[6] = NaOH added 1.0 g to 25 g of 40% by weight aqueous solution
[7] = NaOH added 1.5 g to 25 g of 40% by weight aqueous solution, * = after 48 hours
[8] = NaOH added 2.0 g to 25 g of 40% by weight aqueous solution, * = after 48 hours
[9] = NaOH added 2.5 g to 25 g of 40% by weight aqueous solution, ** = immediately after addition of NaOH

Compound: CC(C(=O)[O-])N(CC(=O)[O-])CC(=O)[O-].[Na+].[Na+].[Na+] (racemic) [Racemic MGDA, methyl glycine diacetic acid (MGDA), reference compound]
- Tsol ([1]; listed as zero): 103.8 °C
- Appearance of test solutions after 96 h of storage [2, 4]: clear liquid
- Appearance of test solutions after 96 h of storage [2, 5]: clear liquid
- Appearance of test solutions after 96 h of storage [2, 6]: clear liquid
- Appearance of test solutions after 96 h of storage [2, 7]: turbid* liquid
- Appearance of test solutions after 96 h of storage [2, 8]: turbid* liquid
- Appearance of test solutions after 96 h of storage [2, 9]: turbid, precipitate**
- concentration of solution that can be made and stored [3]: about 40 % by weight

Compound: CC(C(=O)[O-])N(CC(=O)[O-])CC(=O)[O-].[Na+].[Na+].[Na+] (stereo not shown) [MGDA: 50% ee, methyl glycine diacetic acid (MGDA)]
- Tsol ([1]; listed as 50.0): 68.1 °C
- Appearance of test solutions after 96 h of storage [2, 4]: clear liquid
- Appearance of test solutions after 96 h of storage [2, 5]: clear liquid
- Appearance of test solutions after 96 h of storage [2, 6]: clear liquid
- Appearance of test solutions after 96 h of storage [2, 7]: clear liquid
- Appearance of test solutions after 96 h of storage [2, 8]: clear liquid
- Appearance of test solutions after 96 h of storage [2, 9]: clear liquid

Compound: CC(C(=O)[O-])N(CC(=O)[O-])CC(=O)[O-].[Na+].[Na+].[Na+] (stereo not shown) [ee value 10.1, methyl glycine diacetic acid (MGDA)]
- Tsol ([1]; listed as 10.1): 74.5 °C

Compound: CC(C(=O)[O-])N(CC(=O)[O-])CC(=O)[O-].[Na+].[Na+].[Na+] (stereo not shown) [ee value 20.0, methyl glycine diacetic acid (MGDA)]
- Tsol ([1]; listed as 20.0): 74.0 °C

Compound: CC(C(=O)[O-])N(CC(=O)[O-])CC(=O)[O-].[Na+].[Na+].[Na+] (stereo not shown) [ee value 70.0, methyl glycine diacetic acid (MGDA)]
- Tsol ([1]; listed as 70.0): 59.5 °C

Compound: CC(C(=O)[O-])N(CC(=O)[O-])CC(=O)[O-].[Na+].[Na+].[Na+] (stereo not shown) [ee value 97.7, methyl glycine diacetic acid (MGDA), reference compound]
- Tsol ([1]; listed as 97.7): 37.0 °C
